Source: US20240366560A1, “SMALL MOLECULE TREATMENT OF FATTY LIVER DISEASE AND HCC” (ScandiEdge Therapeutics AB, priority 2021, published 2024)

Assays:
[1] = tested on: PKLR; test: PKLR protein level by western blot in HepG2, 2-day drug treatment; assay type: cell-based; settings: HepG2, two days of treatment, dosages per FIG. 5, P<0.05, FIG. 2A
Protocol: WT HepG2 was included in this study and cultured by Roswell Park Memorial Institute (RPMI, […], Sigma Aldrich) 1640 Medium with 10% fetal bovine serum (FBS) and 1% penicillin-streptomycin (PS). To induce a steatosis model into WT HepG2 cells, high glucose Dulbecco's Modified Eagle Media (DMEM, […]/[…], Sigma-Aldrich) containing 10% FBS and 1% PS was used as medium for one week, together with 10 μg/mL insulin and 10 μM T0901317. All of cells were incubated in the incubator with 5% CO2 and 37° C. (Thermo […]). Fresh medium was provided every two days. As for drug-screening, different numbers of HepG2 cells were seeded for distinct experiments. More in details, 40,000 cells and 500,000 cells were used for 2-day-drug treatment in 96-well-plate and 6-well plate, respectively, while 80,000 cells and 300,000 cells were used for one-week drug treatment in 96-well plate and 6-well plate, respectively. […] Fresh medium was provided every two days. Protein content levels were detected by western blot. After the respective treatment of drugs, the cell pellets were lysed in cell lytic M, followed by protein extraction from supernatant (10 min, 13,000r/min centrifuge). Extracted cell lysate was stored in -20° C. Proteins were quantified through Bovine albumin serum (BAS) standard curve with protein assay dye reagent (BIO-RAD). The proteins were separated by SDS-PAGE with 100v in 90 min by mini-protein TGX precast gels (4-15%, 15 wells, 15 μl/well, BIO-RAD), and then transfer to Mini PVDF transfer package through transfer system (Transfer-Turbo, BIO-RAD). After 30 min blocking with 5% skim milk in cold room (4° C.) and washing with TBST, membrane was cut by the size of interested proteins. Primary antibodies were added into the corresponding membrane sections for overnight binding. Then the membranes were washed with TBST, and the secondary antibodies were incubated for 1 h in cold room. The following antibody were used: (Goat pAb to Rb lg, ab205718, abcam; Rb pAb to beta-actin, ab8227, abcam; […]; Rb pAb to fatty acid synthase, ab99539, abcam). The bindings were imaged by immunostaining and machine (ImageQuant LAS 500). All antibodies were purchased from Abcam online, and βactin was used as global normalized protein. After measurement, the strength of signal for each protein was quantified by ImageJ. The background noise was removed, and all results were normalized by the levels of β-actin. To determine the inhibitory effects of these drugs on the expression level of PKLR, HepG2 was selected as the in vitro model for coherence. […] HepG2 cells were treated with these drugs for two days with different dosages due to their potential cellular toxicities (FIG. 5), and the PKLR protein level was the measured by western blotting. The level of protein expression of PKLR of the drug-treated groups was compared to that of the Ctrl group after normalizing with β-actin.

[2] = tested on: PKLR; test: PKLR protein level by western blot in steatosis-induced HepG2, 7-day drug treatment; assay type: cell-based; settings: steatosis-induced HepG2, 7 days of drug treatment, P<0.05, FIG. 2B
Protocol: (§1) WT HepG2 was included in this study and cultured by Roswell Park Memorial Institute (RPMI, R2405, Sigma Aldrich) 1640 Medium with 10% fetal bovine serum (FBS) and 1% penicillin-streptomycin (PS). To induce a steatosis model into WT HepG2 cells, high glucose Dulbecco's Modified Eagle Media (DMEM, D0822/D5671, Sigma-Aldrich) containing 10% FBS and 1% PS was used as medium for one week, together with 10 μg/mL insulin and 10 μM T0901317. All of cells were incubated in the incubator with 5% CO2 and 37° C. (Thermo SCIENTIFIC). Fresh medium was provided every two days.
(§2) As for drug-screening, different numbers of HepG2 cells were seeded for distinct experiments. More in details, 40,000 cells and 500,000 cells were used for 2-day-drug treatment in 96-well-plate and 6-well plate, respectively, while 80,000 cells and 300,000 cells were used for one-week drug treatment in 96-well plate and 6-well plate, respectively. Detailed drug dosages could be found in FIG. 5. Fresh medium was provided every two days.
(§3) Protein content levels were detected by western blot. After the respective treatment of drugs, the cell pellets were lysed in cell lytic M, followed by protein extraction from supernatant (10 min, 13,000r/min centrifuge). Extracted cell lysate was stored in −20° C. Proteins were quantified through Bovine albumin serum (BAS) standard curve with protein assay dye reagent (BIO-RAD). The proteins were separated by SDS-PAGE with 100v in 90 min by mini-protein TGX precast gels (4-15%, 15 wells, 15 μl/well, BIO-RAD), and then transfer to Mini PVDF transfer package through transfer system (Transfer-Turbo, BIO-RAD). After 30 min blocking with 5% skim milk in cold room (4° C.) and washing with TBST, membrane was cut by the size of interested proteins. Primary antibodies were added into the corresponding membrane sections for overnight binding. Then the membranes were washed with TBST, and the secondary antibodies were incubated for 1 h in cold room. The following antibody were used: (Goat pAb to Rb lg, ab205718, abcam; Rb pAb to beta-actin, ab8227, abcam; anti-pklr, HPA006653, SIGMA; Rb pAb to fatty acid synthase, ab99539, abcam). The bindings were imaged by immunostaining and machine (ImageQuant LAS 500). All antibodies were purchased from Abcam online, and βactin was used as global normalized protein. After measurement, the strength of signal for each protein was quantified by ImageJ. The background noise was removed, and all results were normalized by the levels of β-actin.
(§4) To further analyse the effect of these drugs on lipid accumulation via the DNL pathway, steatosis was induced to HepG2 by treating the cells with high glucose medium (DMEM), insulin and T0901317 (Hansmannel et al., 2006). […] Therefore, the effects of these two drugs on the de novo synthesis of lipids were investigated based on the steatosis-induced HepG2 model. […] Taken together, it was shown that BX-912 and JNK-IN-5A effectively alleviate the protein expression of PKLR and FASN as well as TG levels in HepG2 cell lines, and thus, it was decided to perform in vivo evaluations to test the effect of these two drugs.

[3] = tested on: FASN; test: FASN protein level by western blot in steatosis-induced HepG2, 7-day drug treatment; assay type: cell-based; settings: steatosis-induced HepG2, 7 days of drug treatment, P<0.05, FIG. 2C
Protocol: as §1, §2, §3, §4

[4] = tested on: genes controlling fatty acid biosynthesis and Pcsk9; settings: in vitro (Poirier et al., 2014); cited from earlier work
[5] = tested on: FASN; settings: high-glucose-cultured HepG2 cell model (Hosseini et al., 2020); cited from earlier work

## N#CC(c1ccnc(NCCc2cccnc2)n1)c1nc2ccccc2s1 (stereo not drawn) [AS-601245]
[1]
  protein expression of PKLR vs Ctrl, normalized with β-actin: significantly down-regulated
[2]
  protein expression level of PKLR: significantly decreased

## Nc1ncn([C@@H]2O[C@H](CO)[C@@H](O)[C@H]2O)c(=O)n1 [Azacitidine]
[1]
  protein expression of PKLR vs Ctrl, normalized with β-actin: significantly down-regulated
[2]
  protein expression level of PKLR: significantly decreased
[3]
  protein expression level of FASN: significantly reduced
[4]
  expression level of a list of genes controlling fatty acid biosynthesis and Pcsk9: reduces
[5]
  expression level of Fasn: decreases

## O=C(NC(NC(=S)Nc1ccc(F)c([N+](=O)[O-])c1)C(Cl)(Cl)Cl)C(c1ccccc1)c1ccccc1 (stereo not drawn) [CGK-733]
[1]
  protein expression of PKLR vs Ctrl, normalized with β-actin: significantly down-regulated

## CC(C)(C)c1nc(-c2cccc(NS(=O)(=O)c3c(F)cccc3F)c2F)c(-c2ccnc(N)n2)s1 [Dabrafenib]
[2]
  protein expression level of PKLR: significantly decreased
[3]
  protein expression level of FASN: significantly reduced

## CCCS(=O)(=O)Nc1ccc(F)c(C(=O)c2c[nH]c3ncc(Cl)cc23)c1F [PLX-4720]
[1]
  protein expression of PKLR vs Ctrl, normalized with β-actin: significantly down-regulated
[2]
  protein expression level of PKLR: significantly decreased
[3]
  protein expression level of FASN: significantly reduced

## PF-477736
[2]
  protein expression level of PKLR: significantly decreased
[3]
  protein expression level of FASN: significantly reduced
